Laboratory results: US5283255A, “Wavelength-specific cytotoxic agents” (The University of British Columbia, priority 1992, dated 1994)
In brackets after ≈: the same amount, converted by molar mass. Read-outs that look alike come from different tables or passages of the source.

Key:
Absorption spectrum = assay type: physicochemical; settings: R^1 and R^2 carbomethoxy; FIG. 3
Text: All of the compositions of the invention employ as the light absorbing compound, a derivative of the protoporphyrin ring system which has a light absorption maximum in the range of 670-780 nanometers. […] Only BPD-DA has a major absorption peak at about 685 nm.

M-1 rhabdomycoscercoma = test: In vivo photosensitization, M-1 rhabdomyosarcoma system in DBA/J2 mice; settings: for Number of Days Tumor Free (PR) / Cures (tumor regressed and tumor-free for 30 days): Table 6; for Number of Days Tumor Free (PR): 567 Jo/cm^2, IV 24 h before light; for Cures (tumor regressed and tumor-free for 30 days): 567 Jo/cm^2, 8 animals per group; for Days Tumor-free / Number of Cures: Table 7, light dose 378 To/cm^3; for Number of Cures: 9-15 animals
Experimental: Studies of potential photosensitizers were performed using the M-1 rhabdomycoscercoma system in DBA/J2 mice. The compositions to be tested were diluted to a concentration of […] in PBS from a stock solution in DMSO at 8 mg/ml (except Photofrin® II, which was diluted directly from the clinical vial). […]

tumor cells = test: Alternate in vivo assay: kill of tumor cells from dosed mice (MTT); settings: 80 μg/mouse IV, 180 min
Normal lymphocytes = test: In vitro photosensitization, kill of normal lymphocytes; assay type: cell-based; settings: Lymphocyte, read-out: LD50 (the source's name)
Experimental: (§1) Target cells were washed three times in serum-free medium (DME), counted and made up to a concentration of 10^7 cells per ml.
(§2) For the "affinity" assay, in the dark, 100 μl of the target cell suspension and 100 μl of the test or control compound were mixed. "Labeling" was allowed to continue for one hour at 4° C., and labeled cells were washed in the dark three times with 3 ml medium each time and resuspended in fresh medium. The resuspended cells were then subjected to light exposure at 300-750 nanometers for 30 minutes.
(§3) In a "direct" assay the target cells were irradiated immediately upon addition of the test or control compound.
(§4) The effect of irradiation was estimated using methods appropriate to the target cells.
(§5) The results of each determination on a variety of cells is shown in Table 1 (LD50 in the concentration of compound required to kill 50% of the cell population.)

[1] = system: murine mastocytoma cell line P815; test: In vitro photosensitization, kill of P815 cells; assay type: cell-based; settings: Mus musculus; for EC50: P815, 0.5 h, 300-750 nm light for 30 minutes, read-out: concentration at which fifty percent of the P815 cells were killed; for IC50: P815, read-out: LD50 (the source's name)
Experimental: as §1, §2, §3
When the murine mastocytoma cell line P815 was used, the results were determined as follows:
The cells were labeled as above using concentration of 10-50 ng/ml of Hp as control and the BPD-DB as the test substance. The resuspended cells were treated with 300-750 nm light for 30 minutes and the viability resulting was estimated by direct counting using eosin-Y exclusion, a standard procedure for differentiating living from dead cells.
In other determinations conducted as above, the cells recovered from light exposure were assayed for viability by incubating them for 18 hours in 10 μCi/ml tritium-labeled thymidine according to the standard procedure whereby thymidine incorporation is equated with viability. The cells were harvested and radioactivity uptake was measured by a scintillation counter.
as §5

[2] = In vivo cytotoxicity of Gp versus Hp conjugates (CAMAL-1 and anti-M1 procedures); settings: at appropriate wavelengths
Experimental: The efficacy of the conjugates and of the Gp compounds of the invention in vivo is also assessed. For the CAMAL-1 and anti-Ml conjugates, the procedures are as described in the two Mew et al. papers referenced above in Example 4.

[3] = system: human erythrocytes (RBCS); test: In vitro photosensitization: hemolysis of human erythrocytes after irradiation; assay type: cell-based; settings: Erythrocyte, 0.5 h, light 300-750 nm, 30 minutes, read-out: concentration required to obtain 50% hemolysis
Experimental: as §1, §2
When human erythrocytes (RBCS) were used as target cells, the hemolysis caused by irradiation of control (hematoporphyrin, Hp) labeled and green porphyrin (Gp) labeled cells were estimated visually. The Gp used in this Example was the BPD-DB of FIG. 2 wherein R^1 and R^2 are carboethoxy. […] Thus, a concentration of 250 ng/ml Hp was required under the above conditions to obtain 50% hemolysis while only 10 ng/ml of green porphyrin was required to hemolyze 50% of the RBCs.

KG-1 = test: In vitro photosensitization, kill of KG-1 cells; assay type: cell-based; settings: Homo sapiens, read-out: LD50 (the source's name)
Experimental: as §1, §2, §3, §4, §5

K562 = test: In vitro photosensitization, kill of K562 cells; assay type: cell-based; settings: Homo sapiens, read-out: LD50 (the source's name)
Experimental: as §1, §2, §3, §4, §5

P815 cells = test: Selective binding of green porphyrin: kill of labeled P815 cells; assay type: cell-based, murine; settings: Mus musculus, P815, 0.5 h; labeled in dark 30 minutes, washed, 300-750 nm light 30 minutes; read-out: concentration at which 50% of the P815 cells were destroyed
Experimental: P815 cells were incubated as described in Example 1 using 1-200 ng/ml Hp or Gp. The Gp was BPD-DB of FIG. 2 wherein R^1 and R^2 are carboethoxy. The cells were labeled in the dark for 30 minutes, washed free of unabsorbed porphyrins, resuspended, and then exposed to 300-750 nm light for another 30 minutes. Viability of the cells was established by tritiated thymidine incorporation after labeling with 20 μCi/ml tritiated thymidine and incubating at 37° C. for 18 hours.

HL-60 = test: In vitro photosensitization, kill of HL-60 cells; assay type: cell-based; settings: Homo sapiens, read-out: LD50 (the source's name)
Experimental: as §1, §2, §3, §4, §5

P815 tumors = test: In vivo cytotoxicity of immunoconjugates, P815 tumor-bearing DBA/2 mice
Experimental: The in vivo test relies on the indirect effect of a population of T-suppressor cells on tumors, which then serve as means to assess the effectiveness of the irradiation treatment. P815 mastocytoma cells grown in syngeneic DBA/2 mice stimulate T-suppressor cells specific for the tumor. These T-suppressor cells impede the development of specific T-killer cells which would otherwise aid in the regression of the tumor.
Therefore, in this assay, DBA/2 mice are injected in the right flank subcutaneously with 10^4 P815 cells to incorporate the tumor. On day eight, when the tumors are palpable (approx. 25-42 sq mm) the mice are randomly sorted into groups of eight and injected IV with 150 μl PBS containing nothing, Hp or Gp, B16G-Hp or B16G-Gp, B16G plus either drug, B16G alone or C-MAbHp or C-MAb-Gp. The levels of Hp are 50 Mg per animal in all cases and B16G 310 μg in all cases (where appropriate).
The animals are maintained in the dark for two hours and then exposed to strong light at 300-750 nm and 22.5 mW/cm^2. The animals were then treated normally and monitored on a daily basis.

tumor and normal tissues = settings: mouse, in vivo
Text: Biodistribution studies have been conducted using tritiated BPD-MA and BPD-MB.

C=Cc1c(C)c2cc3nc(cc4[nH]c(cc5nc(cc1[nH]2)C(C)=C5CCC(=O)O)c(CCC(=O)O)c4C)C1(C)C3=CC=C(C(=O)OC)C1C(=O)OC (stereo not drawn) [BPD-DA]
major absorption peak (Absorption spectrum): about 685 nm | Number of Days Tumor Free (PR) (M-1 rhabdomycoscercoma): 10.7 days | Cures (tumor regressed and tumor-free for 30 days) (M-1 rhabdomycoscercoma): 4 | Days Tumor-free (M-1 rhabdomycoscercoma): 2.5 days | Number of Cures (M-1 rhabdomycoscercoma): 4 | % Kill (tumor cells; light dose 3.8 Jo): 11.0% | % Kill (tumor cells; light dose 7.6 Jo): 26.0%

C=Cc1c(C)c2cc3nc(cc4[nH]c(cc5nc(cc1[nH]2)C1(C)C5=CC=C(C(=O)OC)C1C(=O)OC)c(C)c4CCC(=O)O)C(CCC(=O)O)=C3C (stereo not drawn) [BPD-DB]
Number of Days Tumor Free (PR) (M-1 rhabdomycoscercoma): 10.6 days | Cures (tumor regressed and tumor-free for 30 days) (M-1 rhabdomycoscercoma): 3 | Days Tumor-free (M-1 rhabdomycoscercoma): 13.0 days | Number of Cures (M-1 rhabdomycoscercoma): 8

C=Cc1c(C)c2cc3nc(cc4[nH]c(cc5nc(cc1[nH]2)C1(C)C5=CC=C(C(=O)OCC)C1C(=O)OCC)c(C)c4CCC(=O)O)C(CCC(=O)O)=C3C (stereo not drawn) [Gp]
IC50 (Normal lymphocytes; Affinity test): 0.011 µg/mL | IC50 (Normal lymphocytes; Direct test): 0.0042 µg/mL | EC50 [1]: 0.032 µg/mL | IC50 ([1]; P815, Affinity test): 0.026 µg/mL | IC50 ([1]; P815, Direct test): 0.032 µg/mL | in vivo efficacy of Gp compound alone compared to Hp labeled conjugates [2]: superior results | EC50 [3]: 0.01 µg/mL | IC50 (KG-1; KG-1, Affinity test): 0.08 µg/mL | IC50 (KG-1; KG-1, Direct test): 0.163 µg/mL | IC50 (K562; K562, Affinity test): 0.033 µg/mL | IC50 (K562; K562, Direct test): 0.07 µg/mL | EC50 (P815 cells): 0.006 to 0.02 µg/mL (≈ 0.00819 to 0.0273 µM) | IC50 (HL-60; HL-60, Affinity test): 0.0072 µg/mL | IC50 (HL-60; HL-60, Direct test): 0.0035 µg/mL

CC1=C(CCC(=O)O)c2cc3[nH]c(cc4nc(cc5[nH]c(cc1n2)c(C)c5C(C)O)C(C)=C4C(C)O)c(C)c3CCC(=O)O (stereo not drawn) [Hp, hematoporphyrin, reference compound]
% tumor-free after 100 (days) (P815 tumors; Experiment 2): 0% | Mean survival time (P815 tumors; Experiment 2): 21.0 days | No. of cures (P815 tumors; Experiment 2): 0/8 | % tumor-free after 100 (days) (P815 tumors; Experiment 3): 0% | Mean survival time (P815 tumors; Experiment 3): 23.4 days | No. of cures (P815 tumors; Experiment 3): 0/7 | % tumor-free after 100 (days) (P815 tumors; Experiment 4): 0% | Mean survival time (P815 tumors; Experiment 4): 24.2 days | No. of cures (P815 tumors; Experiment 4): 0/8 | % tumor-free after 100 (days) (P815 tumors; Experiment 5): 0% | Mean survival time (P815 tumors; Experiment 5): 27.0 days | No. of cures (P815 tumors; Experiment 5): 0/8 | IC50 (Normal lymphocytes; Affinity test): 0.1 µg/mL | IC50 (Normal lymphocytes; Direct test): 0.031 µg/mL | EC50 [1]: 0.58 µg/mL | IC50 ([1]; P815, Affinity test): 1.3 µg/mL | IC50 ([1]; P815, Direct test): 0.58 µg/mL | EC50 [3]: 0.25 µg/mL | IC50 (KG-1; KG-1, Affinity test): 2.35 µg/mL | IC50 (KG-1; KG-1, Direct test): 0.96 µg/mL | IC50 (K562; K562, Affinity test): 2.5 µg/mL | IC50 (K562; K562, Direct test): 0.77 µg/mL | EC50 (P815 cells): 0.2 µg/mL (≈ 0.334 µM) | IC50 (HL-60; HL-60, Affinity test): 0.145 µg/mL | IC50 (HL-60; HL-60, Direct test): 0.064 µg/mL

C=Cc1c(C)c2cc3nc(cc4[nH]c(cc5nc(cc1[nH]2)C(C)=C5CCC(=O)O)c(CCC(=O)OC)c4C)C1(C)C3=CC=C(C(=O)OC)C1C(=O)OC (stereo not drawn) [^3 H-BPD-MA]
ratio of concentration in tumor to Blood (tumor and normal tissues; 180 min): 0.52 | ratio of concentration in tumor to Brain (tumor and normal tissues; 180 min): 3.76 | ratio of concentration in tumor to Heart (tumor and normal tissues; 180 min): 1.09 | ratio of concentration in tumor to Intestine (tumor and normal tissues; 180 min): 2.42 | ratio of concentration in tumor to Lung (tumor and normal tissues; 180 min): 0.79 | ratio of concentration in tumor to Muscle (tumor and normal tissues; 180 min): 2.68 | ratio of concentration in tumor to Skin (tumor and normal tissues; 180 min): 2.57 | ratio of concentration in tumor to Stomach (tumor and normal tissues; 180 min): 1.57 | ratio of concentration in tumor to Blood (tumor and normal tissues; 1440 min): 1.45 | ratio of concentration in tumor to Brain (tumor and normal tissues; 1440 min): 3.06 | ratio of concentration in tumor to Heart (tumor and normal tissues; 1440 min): 1.71 | ratio of concentration in tumor to Intestine (tumor and normal tissues; 1440 min): 1.85 | ratio of concentration in tumor to Lung (tumor and normal tissues; 1440 min): 1.55 | ratio of concentration in tumor to Muscle (tumor and normal tissues; 1440 min): 2.98 | ratio of concentration in tumor to Skin (tumor and normal tissues; 1440 min): 1.64 | ratio of concentration in tumor to Stomach (tumor and normal tissues; 1440 min): 1.89 | ratio of concentration in tumor to Blood (tumor and normal tissues; 2880 min): 1.37 | ratio of concentration in tumor to Brain (tumor and normal tissues; 2880 min): 2.92 | ratio of concentration in tumor to Heart (tumor and normal tissues; 2880 min): 1.63 | ratio of concentration in tumor to Intestine (tumor and normal tissues; 2880 min): 1.88 | ratio of concentration in tumor to Lung (tumor and normal tissues; 2880 min): 1.47 | ratio of concentration in tumor to Muscle (tumor and normal tissues; 2880 min): 2.77 | ratio of concentration in tumor to Skin (tumor and normal tissues; 2880 min): 1.95 | ratio of concentration in tumor to Stomach (tumor and normal tissues; 2880 min): 2.08 | ratio of concentration in tumor to Blood (tumor and normal tissues; 4320 min): 1.66 | ratio of concentration in tumor to Brain (tumor and normal tissues; 4320 min): 2.69 | ratio of concentration in tumor to Heart (tumor and normal tissues; 4320 min): 1.46 | ratio of concentration in tumor to Intestine (tumor and normal tissues; 4320 min): 1.48 | ratio of concentration in tumor to Lung (tumor and normal tissues; 4320 min): 1.16 | ratio of concentration in tumor to Muscle (tumor and normal tissues; 4320 min): 2.16 | ratio of concentration in tumor to Skin (tumor and normal tissues; 4320 min): 1.57 | ratio of concentration in tumor to Stomach (tumor and normal tissues; 4320 min): 2.04 | ratio of concentration in tumor to Blood (tumor and normal tissues; 5760 min): 2.77 | ratio of concentration in tumor to Brain (tumor and normal tissues; 5760 min): 4.18 | ratio of concentration in tumor to Heart (tumor and normal tissues; 5760 min): 2.24 | ratio of concentration in tumor to Intestine (tumor and normal tissues; 5760 min): 3.29 | ratio of concentration in tumor to Lung (tumor and normal tissues; 5760 min): 1.63 | ratio of concentration in tumor to Muscle (tumor and normal tissues; 5760 min): 3.45 | ratio of concentration in tumor to Skin (tumor and normal tissues; 5760 min): 2.03 | ratio of concentration in tumor to Stomach (tumor and normal tissues; 5760 min): 2.23 | ratio of concentration in tumor to Blood (tumor and normal tissues; 10080 min): 3.65 | ratio of concentration in tumor to Brain (tumor and normal tissues; 10080 min): 6.91 | ratio of concentration in tumor to Heart (tumor and normal tissues; 10080 min): 2.51 | ratio of concentration in tumor to Intestine (tumor and normal tissues; 10080 min): 2.23 | ratio of concentration in tumor to Lung (tumor and normal tissues; 10080 min): 1.79 | ratio of concentration in tumor to Muscle (tumor and normal tissues; 10080 min): 4.23 | ratio of concentration in tumor to Skin (tumor and normal tissues; 10080 min): 3.51 | ratio of concentration in tumor to Stomach (tumor and normal tissues; 10080 min): 2.98 | Tumor skin ratios, most favorable time (tumor and normal tissues; iv): most favorable 3 hours after IV administration
